In patent publication US20220389515A1, “USE OF BIOMARKERS TO PREDICT CLINICAL SENSITIVITY TO 2-(4-CHLOROPHENYL)-N-((2-(2,6-DIOXOPIPERIDIN-3-YL)-1-OXOISOINDOLIN-5-YL)METHYL)-2,2-DIFLUOROACETAMIDE” (priority 2019, published 2022):

Tests used:
Format in all cases: cell-based, human
U937 Cas9 cell lines = experiment: Cell proliferation assay (CTG, 5 days) in U937 cells after RNP electroporation knockout
Text: Next, the roles of additional negative regulators of mTOR were studied. To knockout the studied genes, an electroporation-based method was used where a ribonucleoprotein (RNP) consisting of the Cas9 protein and gene-targeting gRNA was directly delivered to the U937 cells. A crRNA-tracrRNA duplex was first prepared consisting of the crRNA with a 20 nt sequence specific to each target gene and the universal tracrRNA to guide the Cas9 nuclease to the genomic locus. The sgRNA sequences targeting CRBN, ATF4, GCN1, GCN2, DDIT4, TSC1, TSC2, or non-targeting (NT-1) and non-coding (NC-8) controls were selected from the Cellecta sgRNA library. After pre-coupling the Cas9 enzyme to the crRNA-tracrRNA duplex, the complex was mixed with one million U937 cells per sample in nucleofection solution (4D-Nucleofector X kit SE; Lonza). Cells were electroporated in a 4D nucleofector according to the manufacturer's instructions and plated into complete cell culture media.
Then a cell proliferation assay was performed. Compound D dissolved in DMSO was injected into 96-well cell culture plates using a HP D300 digital dispenser in triplicate for each final Compound D concentration. […] After 5 days, cell proliferation was assessed using CTG (CellTiter-Glo) according to the manufacturer's instructions to assess the effects of Compound D on proliferation of each cell line.

[1] = tested on: U937, OCI-AML2 and MOLM-13; experiment: Cell proliferation of parental, CRBN-ablated and GSPT1-G575N expressing AML cells
Protocol: FIG. 2A illustrates the volcano plot of differentially abundant proteins in response to Compound D treatment relative to the DMSO control. KG1 cells were treated with DMSO or 100 nM Compound D for 4 hours and subjected to TMT proteomics analysis. The X-axis denotes the log 2-fold change of Compound D versus the DMSO control for each protein. P-values were corrected for multiple hypothesis testing using the Benjamini-Hoschberg method to arrive at an adjusted-P-value (adj-P, also known as a false discovery rate). The y-axis denotes the −log 10 (adj-P) values indicating statistical significance such that proteins lying above the dotted red line are statistically significant findings with adjusted P-values<0.05. FIG. 2B illustrates the immunoblot analysis of KG1 and U937 cells treated with DMSO or Compound D for 4 hours. Where indicated, cells were pretreated with Bortezomib or MLN4924 for 30 minutes. […]
For cell proliferation assays, human cancer cell lines cultured in the growth medium recommended by the vendor (as described above) were seeded into black 384-well plates containing DMSO or test compounds. […] After 72 hours, cell proliferation was assessed using the CTG assay according to the manufacturer's instructions. […]

U937 GCN2-/- cells = experiment: Immunoblot and proliferation (CTG, day 3) of U937 GCN2-/- cells re-expressing GCN2; conditions: not with mutants T899A/T904A, K619R, F1143L/R1144L
Protocol: The U937 GCN2−/− cell line is derived from a single clone of U937 parental cells stably infected with a lentiviral CRISPR vector targeting GCN2. […] Cells were incubated with DMSO or 200 nM Compound D and lysed at the indicated time points. Arrows pointing to bands in the blot on the right designate the cleaved forms of caspase-3. […] The U937 GCN2−/− cell line is derived from a single clone of U937 parental cells stably infected with a lentiviral CRISPR vector targeting GCN2. […] Cells were treated with DMSO or Compound D for 24 hours. On day 3 after Compound D treatment, cell proliferation was assessed by CTG. Result shown in all figure panels is representative of at least three biological replicates. Data in FIGS. 13C, 13D and 13E are shown as mean±SD, n=3 technical replicates.
To determine if the activation of the ISR by Compound D is solely mediated by GCN2, the effect of GCN2 ablation on Compound D response was evaluated.

O=C1CCC(N2Cc3cc(CNC(=O)C(F)(F)c4ccc(Cl)cc4)ccc3C2=O)C(=O)N1 (centres unmarked) [Compound D, 2-(4-chlorophenyl)-N-((2-(2,6-dioxopiperidin-3-yl)-1-oxoisoindolin-5-yl)methyl)-2,2-difluoroacetamide]
anti-proliferative effects after depletion of GCN2, ATF4, GCN1, CRBN, DDIT4, TSC1, TSC2 (U937 Cas9 cell lines; U937): diminished this effect
anti-proliferative effects in control cells (U937 Cas9 cell lines; U937 parental and non-coding (NC-8) controls): dose-dependent anti-proliferative effects
anti-proliferative effect after ablation of CRBN ([1]; CRBN knockout U937, OCI-AML2, MOLM-13): completely abolished the anti-proliferative effect
antiproliferative response in cells overexpressing GSPT1-G575N ([1]; U937, OCI-AML2, MOLM-13, GSPT1 stabilization): completely inhibited the response to Compound D
response after reintroduction of GCN2 wild-type (U937 GCN2-/- cells): significantly restored the response to Compound D
